Like-named read-outs stand apart in the source and are kept apart here.
Key:
Assay type in all cases: biochemical, Microbacterium sp. 3H14
MPOx [1] = biological target: MPOx
MPOx [2] = tested on: MPOx; remark: listed apart in the source
MPOx [3] = tested on: MPOx; remark: listed apart in the source

SMILES	Ki (MPOx [1]) [µM]	Km (MPOx [2]) [µM]	Km (MPOx [3]) [µM]
O=C(CCc1ccc(O)c(O)c1)c1c(O)cc(O)c([C@@H]2O[C@H](CO)[C@@H](O)[C@H](O)[C@H]2O)c1O [Aspalathin]	300 ± 50	85 ± 14	
OC[C@H]1OC(O)[C@H](O)[C@@H](O)[C@@H]1O (stereo partly drawn) [D-glucose]			660 ± 30
OC1OC[C@@H](O)[C@H](O)[C@H]1O (stereo partly drawn) [D-xylose]			19000 ± 1000
O=C(CCc1ccc(O)cc1)c1c(O)cc(O)cc1O[C@@H]1O[C@H](CO)[C@@H](O)[C@H](O)[C@H]1O [Phlorizin]	480 ± 50	57 ± 6	
